From US9174967B2, “Substituted pyrazole-containing compounds and their use as pesticides” (BASF SE, priority 2012, dated 2015)

Key:
Assay in all cases: whole plant or invertebrate
Type in all cases: in vivo
[1] = system: Cowpea Aphid (aphis craccivora); details: spray, population reduction assessed after 24, 72 and 120 hours, read-out: mortality in comparison with untreated controls
[2] = system: Diamond Back Moth (plutella xylostella); details: in Brassica oleracea, foliar, leaf dip, 3rd instar larvae, 72 hours after treatment, read-out: mortality in comparison with untreated controls
[3] = system: Mediterranean Fruitfly (Ceratitis capitata); details: 120 h, egg and larval mortality after 5 days, read-out: mortality in comparison with untreated controls
[4] = system: Orchid Thrips (dichromothrips corbetti); details: 96 h, adult thrips, after 4 days, read-out: mortality in comparison with untreated controls
[5] = system: Silverleaf Whitefly (Bemisia argentifolii); details: 72 h, whitefly adults, 3 days after treatment, read-out: mortality in comparison with untreated controls
[6] = system: Southern Armyworm (Spodoptera eridania); details: in Phaseolus lunatus, 96 h, larvae, 4 days after treatment, read-out: mortality in comparison with untreated controls
[7] = system: Vetch Aphid (Megoura viciae); details: foliar, 120 h, adult aphids, after 5 days, read-out: mortality in comparison with untreated controls
[8] = system: Tobacco Budworm (Heliothis virescens); details: in Gossypium hirsutum, 96 h, larvae, 4 days after treatment, read-out: mortality in comparison with untreated controls
[9] = system: Boll Weevil (Anthonomus grandis); details: 120 h, egg and larval mortality after 5 days, read-out: mortality in comparison with untreated controls
[10] = system: Red Spider Mite (Tetranychus kanzawai); details: in Vigna unguiculata, 72 hours after treatment, read-out: mortality in comparison with untreated controls
[11] = system: Rice Green Leafhopper (Nephotettix virescens); details: adults, after 72 hours, read-out: mortality in comparison with untreated controls
[12] = system: Rice Brown Plant Hopper (Nilaparvata lugens); details: adults, after 72 hours, read-out: mortality in comparison with untreated controls
[13] = system: Green Peach Aphid (Myzus persicae); details: 120 h, after 5 days, read-out: mortality in comparison with untreated controls
[14] = system: Colorado Potato Beetle (Leptinotarsa decemlineata); details: in Solanum melongena, foliar, 96 h, larvae, 4 days after treatment, read-out: mortality in comparison with untreated controls

CCS(CC)=Nc1c(-c2cc(Cl)c3c(c2)OCO3)c(C(F)(F)F)nn1-c1ncccn1 [I.1-1, [4-(7-Chloro-1,3-benzodioxol-5-yl)-2-pyrimidin-2-yl-5-(trifluoromethyl)pyrazol-3-yl]imino-diethyl-λ^4-sulfane]
≥ 75%: mortality at 300 ppm [1] | mortality at 300 ppm [2] | mortality at 2500 ppm [3] | mortality at 300 ppm [4] | mortality at 500 ppm [5] | mortality at 300 ppm [6] | mortality at 2500 ppm [7] | mortality at 2500 ppm [8] | mortality at 2500 ppm [9] | mortality at 300 ppm [10] | mortality at 300 ppm [11] | mortality at 500 ppm [12]

CC(C)S(=Nc1c(-c2cc(Cl)c3c(c2)OCO3)c(C(F)(F)F)nn1-c1ncccn1)C(C)C [I.1-2, [4-(7-Chloro-1,3-benzodioxol-5-yl)-2-pyrimidin-2-yl-5-(trifluoromethyl)pyrazol-3-yl]imino-diisopropyl-λ^4-sulfane]
≥ 75%: mortality at 300 ppm [1] | mortality at 300 ppm [2] | mortality at 2500 ppm [3] | mortality at 300 ppm [4] | mortality at 500 ppm [5] | mortality at 300 ppm [6] | mortality at 2500 ppm [7] | mortality at 2500 ppm [8] | mortality at 2500 ppm [9] | mortality at 300 ppm [11] | mortality at 500 ppm [12]

FC(F)(F)c1nn(-c2ncccn2)c(N=S2CCCC2)c1-c1cc(Cl)c2c(c1)OCO2 [I.1-3, 2-[4-(7-Chloro-1,3-benzodioxol-5-yl)-5-(thiolan-1-ylideneamino)-3-(trifluoromethyl)pyrazol-1-yl]pyrimidine]
≥ 75%: mortality at 300 ppm [1] | mortality at 300 ppm [2] | mortality at 2500 ppm [3] | mortality at 300 ppm [4] | mortality at 500 ppm [5] | mortality at 300 ppm [6] | mortality at 2500 ppm [7] | mortality at 2500 ppm [8] | mortality at 2500 ppm [9] | mortality at 300 ppm [10] | mortality at 300 ppm [11] | mortality at 500 ppm [12]

CCS(CC)=Nc1c(-c2cc(Cl)cc(C(F)(F)F)c2)c(C(F)(F)F)nn1-c1ncccn1 [I.1-4]
≥ 75%: mortality at 300 ppm [1] | mortality at 300 ppm [2] | mortality at 2500 ppm [3] | mortality at 300 ppm [4] | mortality at 300 ppm [6] | mortality at 2500 ppm [7] | mortality at 2500 ppm [8] | mortality at 2500 ppm [9] | mortality at 300 ppm [10] | mortality at 300 ppm [11] | mortality at 500 ppm [12]

CC(C)S(=Nc1c(-c2cc(Cl)cc(C(F)(F)F)c2)c(C(F)(F)F)nn1-c1ncccn1)C(C)C [I.1-5]
≥ 75%: mortality at 300 ppm [1] | mortality at 300 ppm [2] | mortality at 2500 ppm [3] | mortality at 300 ppm [4] | mortality at 500 ppm [5] | mortality at 300 ppm [6] | mortality at 2500 ppm [7] | mortality at 2500 ppm [8] | mortality at 2500 ppm [9] | mortality at 300 ppm [13] | mortality at 300 ppm [10] | mortality at 300 ppm [11] | mortality at 500 ppm [12] | mortality at 300 ppm [14]

FC(F)(F)c1cc(Cl)cc(-c2c(C(F)(F)F)nn(-c3ncccn3)c2-n2cccc2)c1 [I.1-7, 2-[4-[3-chloro-5-(trifluoromethyl)phenyl]-5-pyrrol-1-yl-3-(trifluoromethyl)pyrazol-1-yl]pyrimidine]
≥ 75%: mortality at 300 ppm [1] | mortality at 300 ppm [2] | mortality at 300 ppm [4] | mortality at 500 ppm [5] | mortality at 300 ppm [6] | mortality at 2500 ppm [8] | mortality at 300 ppm [11]

CCNC(=O)N(C(=O)NCC)c1c(-c2cc(Cl)cc(C(F)(F)F)c2)c(C(F)(F)F)nn1-c1ncccn1 [I.1-9, 1-[4-[3-chloro-5-(trifluoromethyl)phenyl]-2-pyrimidin-2-yl-5-(trifluoromethyl)pyrazol-3-yl]-3-ethyl-1-(ethylcarbamoyl)urea]
≥ 75%: mortality at 500 ppm [12]

FC(F)(F)c1cc(Cl)cc(-c2c(C(F)(F)F)nn(-c3ncccn3)c2/N=N/Nc2ccccc2)c1 [I.1-10, N-[(E)-[4-[3-chloro-5-(trifluoromethyl)phenyl]-2-pyrimidin-2-yl-5-(trifluoromethyl)pyrazol-3-yl]azo]aniline]
≥ 75%: mortality at 300 ppm [1] | mortality at 300 ppm [2] | mortality at 2500 ppm [3] | mortality at 300 ppm [6] | mortality at 2500 ppm [7] | mortality at 2500 ppm [8] | mortality at 2500 ppm [9] | mortality at 300 ppm [13]
